Assay results as given in US20240417428A1, “POLYPEPTIDE FOR INHIBITING TRPM8 AND USE THEREOF” (ZHEJIANG UNIVERSITY, priority 2021, published 2024).

Columns and labels:
TRPM8 [1] = target: T1, TRPM8 (Mus musculus, UniProt Q8R4D5); experiment: Inside-out single-channel recording of menthol-activated TRPM8 at +80 mV; format: cell-based; parameters: expressed in transfected cells; host or cells: HEK293T; conditions: saturating menthol (1 mM) alone
Protocol: (§1) HEK293T cells were cultured in Dulbecco's modified Eagle culture medium under a 37° C., 5% CO2 environment, 10% fetal bovine serum, penicillin (100 U/mL), and streptomycin ([…]) was needed to add into the culture medium. Transient transfection was conducted by using Lipo 2000 (Invitrogen) transfection kit and following the instruction manual.
(§2) Electrophysiological experiment recordings were performed on the cells within 24˜48 h of transient transfections. Specifically, single channel electrophysiological recordings were performed within 8 h after transfection.
(§3) Measurement of the cell currents was respectively performed in the whole-cell recording mode, inside-out recording mode or outside-out recording mode with a HEKA EPC10 amplifier. In the whole cell electrophysiological recordings, glass microelectrodes made of borosilicate material were fire-polished to a original electrode resistance of about 3-6 MΩ. Serial resistance was compensated by 60%. The whole cell electrophysiological recordings were performed at ±80 mV. For single channel electrophysiological recordings, glass microelectrodes were fire-polished to a higher resistance of 6-8 MΩ2. Current signal was sampled at 10 kHz and filtered at 2.9 kHz. Membrane potential of the cell membrane would be clamped at +80 mV. All electrophysiological recordings were performed at room temperature (22° C.) (the maximum variation is 1° C.).
There were different bath and pipette solutions prepared for different ion channels current measurement. For ion channels such as TRPM8, TRPV1, TRPV2, TRPV3 and TRPA1, the formula of the bath and pipette solutions was: 130 mM NaCl, 0.2 mM EDTA and 3 mM HEPES, pH=7.2. For the current measurement of TRPM4 ion channel, the formula of the bath solution was: 130 mM NaCl and 3 mM HEPES, pH=7.2, and the formula of the pipette solution was: 500 μM CaCl2), 130 mM NaCl and 3 mM HEPES, pH=7.2. For the current measurement of TRPM2 ion channel, the formula of the bath solution was: 147 mM NaCl, 2 mM KCl, 1 mM MgCl2, 10 mM HEPES, 2 mM CaCl2) 13 mM Glucose, pH=7.4, and the formula of the pipette solution was: 147 mM NaCl, 1 mM MgCl2, 10 mM HEPES, pH=7.4. For the current measurement of Nav1.5, Nav1.7 ion channels, the formula of the bath solution was: 140 mM NaCl, 3 mM KCl, 1 mM MgCl2, 1 mM CaCl2), 10 mM HEPES, pH=7.2 and the formula of the pipette solution was: 140 mM CsF, 1 mM EGTA, 10 mM NaCl, 10 mM MgCl2, 3 mM KCl, pH=7.2. To evoke sodium channel current, the membrane potential was increased from −80 mV to +10 mV.
A rapid solution changer with a gravity-driven perfusion system (RSC-200, BioLogic) was used to rapidly perfuse specific solutions into the cells to be tested. Each solution was delivered through a separate tube so that there is no mixing of solutions. The glass microelectrode with a membrane patch was placed directly below the outlet of the perfusion tube during the electrophysiology recordings.

TRPM8 [2] = target: T1, TRPM8; experiment: Whole-cell electrophysiological recording, menthol-activated TRPM8 in transfected HEK293T cells; format: cell-based; parameters: expressed in transfected cells; host or cells: HEK293T; conditions: negative control peptide
Protocol: as §1, §2
as §3, with “C.). […]” for “C.).”

T1 sequence (Q8R4D5 whole entry): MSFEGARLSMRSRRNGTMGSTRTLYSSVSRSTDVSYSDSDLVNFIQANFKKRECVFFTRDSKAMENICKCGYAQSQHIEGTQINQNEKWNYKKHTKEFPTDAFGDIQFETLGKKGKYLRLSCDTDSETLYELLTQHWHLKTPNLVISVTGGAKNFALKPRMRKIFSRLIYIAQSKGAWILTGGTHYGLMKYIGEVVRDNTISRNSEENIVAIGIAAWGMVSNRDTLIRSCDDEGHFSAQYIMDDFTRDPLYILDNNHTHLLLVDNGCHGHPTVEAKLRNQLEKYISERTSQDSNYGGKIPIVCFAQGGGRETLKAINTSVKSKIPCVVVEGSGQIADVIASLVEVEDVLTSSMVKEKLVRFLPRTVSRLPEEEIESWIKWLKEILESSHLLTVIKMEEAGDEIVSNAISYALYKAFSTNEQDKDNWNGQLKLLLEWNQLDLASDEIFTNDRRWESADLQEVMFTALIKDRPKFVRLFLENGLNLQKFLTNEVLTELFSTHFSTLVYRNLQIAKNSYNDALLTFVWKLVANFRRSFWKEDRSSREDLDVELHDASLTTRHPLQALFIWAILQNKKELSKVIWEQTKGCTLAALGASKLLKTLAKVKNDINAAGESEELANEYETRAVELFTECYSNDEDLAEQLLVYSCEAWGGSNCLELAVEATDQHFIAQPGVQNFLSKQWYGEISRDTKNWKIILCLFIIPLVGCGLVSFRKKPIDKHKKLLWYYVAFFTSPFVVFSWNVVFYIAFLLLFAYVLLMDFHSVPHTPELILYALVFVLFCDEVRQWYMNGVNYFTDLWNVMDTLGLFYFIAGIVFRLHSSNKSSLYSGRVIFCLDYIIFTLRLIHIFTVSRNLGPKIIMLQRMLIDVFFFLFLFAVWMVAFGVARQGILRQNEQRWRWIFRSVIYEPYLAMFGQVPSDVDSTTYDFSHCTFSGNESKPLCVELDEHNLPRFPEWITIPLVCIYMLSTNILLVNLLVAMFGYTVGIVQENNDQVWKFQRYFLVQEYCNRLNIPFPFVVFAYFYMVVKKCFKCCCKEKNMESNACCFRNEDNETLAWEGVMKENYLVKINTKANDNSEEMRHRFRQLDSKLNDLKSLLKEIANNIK

| Compound | maximum open probability of TRPM8 activation (TRPM8 [1]) | single-channel conductance of TRPM8 (TRPM8 [1]; n=3) | inhibition of TRPM8 (TRPM8 [2]) |
| --- | --- | --- | --- |
| CC1CCC(C(C)C)C(O)C1 (stereo not drawn) [menthol, reference compound] | ~70% | 58.83±1.85 pS | – |
| CDHRRRQARYRRC [S-DeC-1.2, negative control polypeptide, reference compound] | – | – | did not inhibit TRPM8 |
